# Results published in PubChem BioAssay (NCI).
#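 Where inhibition never reached the appropriate level, the endpoint shown equals the highest concentration tested. Otherwise, values were interpolated linearly from a five-concentration, 48-hour dose response in 96-well plates. Definition used: TGI = concentration required for complete inhibition of growth.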
# Experiments:
# Test in all cases: NCI tumour cell line growth inhibition, 48 h
# [1] = system: HCT-15 colon
# [2] = system: HOP-62 NSCLC
# [3] = system: SK-MEL-5 melanoma
# [4] = system: SN12C renal
# [5] = system: SK-MEL-2 melanoma
# [6] = system: A498 renal
# [7] = system: SF-268 CNS
# [8] = system: SW-620 colon
# [9] = system: TK-10 renal
# [10] = system: CCRF-CEM leukemia
# [11] = system: M14 melanoma
# [12] = system: KM12 colon
# [13] = system: RPMI-8226 leukemia
# [14] = system: SK-OV-3 ovarian
# [15] = system: IGROV1 ovarian
# [16] = system: COLO 205 colon
# [17] = system: SR leukemia
# [18] = system: NCI-H226 lung
# [19] = system: HL-60(TB) leukemia
Compound,TGI [1] [µM],TGI [2] [µM],TGI [3] [µM],TGI [4] [µM],TGI [5] [µM],TGI [6] [µM],TGI [7] [µM],TGI [8] [µM],TGI [9] [µM],TGI [10] [µM],TGI [11] [µM],TGI [12] [µM],TGI [13] [µM],TGI [14] [µM],TGI [15] [µM],TGI [16] [µM],TGI [17] [µM],TGI [18] [µM],TGI [19] [µM]
COc1cc(CC2c3cc(OC)c(OC)cc3CCN2C)ccc1O (stereo not given),> 100,> 100,> 100,> 100,> 100,> 100,> 100,> 100,> 100,> 100,> 100,> 100,> 100,,,,,,
CC(=O)OCC1OC(OC2C(COC(C)=O)OC(Sc3ccccc3C)C(OC(C)=O)C2OC(C)=O)C(OC(C)=O)C(OC(C)=O)C1OC(C)=O (stereo not given),> 100,> 100,> 100,> 100,> 100,> 100,> 100,> 100,> 100,,> 100,> 100,> 100,> 100,> 100,> 100,> 100,> 100,
COc1ccc(C2ON(c3ccccc3)CC=C2C)cc1 (stereo not given),> 100,> 100,,> 100,78.3,,> 100,> 100,> 100,> 100,> 100,> 100,> 100,> 100,> 100,> 100,> 100,> 100,> 100
CC(c1ccc2c(c1)CCC1C2CC2OC23CC=CC(=O)[C@]13C)C1C[C@]2(C)O[C@]2(C)[C@H](O)O1 (stereo not given in full),> 100,40.3,28.1,> 100,> 100,,> 100,> 100,> 100,> 100,33.7,> 100,> 100,> 100,> 100,> 100,53.6,72,71.9
c1cc2nnsc2s1,> 100,> 100,> 100,> 100,> 100,> 100,> 100,> 100,> 100,> 100,> 100,> 100,> 100,> 100,> 100,> 100,,> 100,> 100
O=C1Cc2nc(CO)c(CO)c(CO)c2CO1,> 100,> 100,> 100,> 100,> 100,> 100,> 100,> 100,> 100,> 100,> 100,> 100,> 100,> 100,> 100,> 100,,,> 100
